What was measured:
[1] = test system: experimental ICH; test: hemorrhagic areas of brains of normoglycemic and hyperglycemic rats with experimental ICH treated with AZA; format: in vivo, Wistar rats
Description: (§1) In the hyperglycemia experiment, six Wistar rats are applied. Regarding each rat, hyperglycemia is induced by a single intraperitoneal injection of a buffer solution of streptozotocin (STZ) in 31 mM citrate and 39 mM sodium phosphate at 70 mg/kg body weight after an overnight fast. On the other hand, control rats receive an intraperitoneal injection of buffer vehicle. On day 3 after STZ treatment, whole blood of the rats is obtained and the glucose levels thereof are measured. Blood glucose level of ≥250 mg/dL was chosen as hyperglycemia, whereas rats were used as normoglycemia, defined as a blood glucose level of <100 mg/dL.
(§2) Then in the intracerebral hemorrhage experiment, each hyperglycemic or normoglycemic rat is anesthetized with an intraperitoneal injection of 50 mg/kg pentobarbital. Next, a needle is introduced through a burr hole into the striatum, and the needle is then removed, with the burr hole sealed with bone wax and the wound sutured. After a period of time, AZA is administered orally or by gastric lavage at 5 mg/kg in normal saline. Blood of the rats are sampled on days 1, 4, and 7 post-induction of ICH for testing the glucose level thereof.
Experiment 2: comparing the hemorrhagic areas of normoglycemic and hyperglycemic rats treated with AZA.

[2] = test system: AQP4; test: expression of AQP4 in brain tissues of normoglycemic and hyperglycemic rats with experimental ICH, immunohistochemistry; format: in vivo, Wistar rats
Description: as §1, §2
Experiment 3: determining the expression of AQP4 in normoglycemic and hyperglycemic rats.
The differential expressions of AQP4 in normoglycemic and hyperglycemic rats are detected by AQP4 autoantibody by Immunohistochemistry. The effect of AZA influencing the expression of AQP4 are tested.

[3] = hyperglycemic rats treated with AZA, day 1
[4] = hyperglycemic rats treated with AZA, day 4
[5] = hyperglycemic rats treated with AZA, day 7
[6] = normoglycemic rats treated with AZA, day 1
[7] = normoglycemic rats treated with AZA, day 4
[8] = normoglycemic rats treated with AZA, day 7

CC(=O)Nc1nnc(S(N)(=O)=O)s1 [AZA, acetazolamide]
hemorrhagic areas, change in words ([1]; both normoglycemic and hyperglycemic rats treated with AZA): significant decrease
hemorrhagic areas square measure of rats (%) [1, 3]: 2.08 ± 0.02%
hemorrhagic areas square measure of rats (%) [1, 4]: 0.91 ± 0.13%
hemorrhagic areas square measure of rats (%) [1, 5]: 0.38 ± 0.10%
hemorrhagic areas square measure of rats (%) [1, 6]: 6.00 ± 0.05%
hemorrhagic areas square measure of rats (%) [1, 7]: 2.61 ± 0.17%
hemorrhagic areas square measure of rats (%) [1, 8]: 1.37 ± 0.05%
AQP4 expression, change in words ([2]; hyperglycemic rats administered with AZA (5 mg/kg)): significant decrease
the expression of AQP4 [2, 3]: 15.67 ± 6.59
the expression of AQP4 [2, 4]: 8.65 ± 4.53%
the expression of AQP4 [2, 5]: 2.33 ± 3.83
the expression of AQP4 [2, 6]: 12.19 ± 2.75
the expression of AQP4 [2, 7]: 18.56 ± 5.67 ^
the expression of AQP4 [2, 8]: 37.84 ± 6.53
